Test results from US20060063803A1, “4-Amino substituted-2-substituted-1,2,3,4-tetrahydroquinoline compounds” (Pfizer Inc, priority 2004, published 2006).

Experiments:
[1] = In vitro microcentrifuge dissolution test; format: physicochemical; conditions: PBS pH 6.5, 290 mOsm/kg, 7.3 mM sodium taurocholic acid, 1.4 mM 1-palmitoyl-2-oleyl-sn-glycero-3-phosphocholine, 37° C.; 200 μgA/mL if all dissolved
Procedure: An in vitro dissolution test was used to determine the dissolution performance of the solid amorphous dispersion of Example 89. For this test, a sufficient amount of material was added to a microcentrifuge test tube so that the concentration of Compound A would have been 200 μgA/mL, if all of the compound had dissolved. The test was run in duplicate. The tubes were placed in a 37° C. temperature-controlled chamber, and 1.8 mL PBS at pH 6.5 and 290 mOsm/kg, containing 7.3 mM sodium taurocholic acid and 1.4 mM of 1-palmitoyl-2-oleyl-sn-glycero-3-phosphocholine, was added to each respective tube. The samples were quickly mixed using a vortex mixer for about 60 seconds. The samples were centrifuged at 13,000 G at 37° C. for 1 minute. The resulting supernatant solution was then sampled and diluted 1:5 (by volume) with methanol and analyzed by high-performance liquid chromatography (HPLC). HPLC analysis was performed using a Zorbax RX-C18 column. The mobile phase consisted of 30/70 0.15% trifluoroacetic acid/acetonitrile, with a flow rate of 1.0 mL/min. UV absorbance was measured at 254 nm. The contents of each tube were mixed on the vortex mixer and allowed to stand undisturbed at 37° C. until the next sample was taken. Samples were collected at 4, 10, 20, 40, 90, and 1200 minutes. […]

[2] = In vivo tests - dogs, oral suspension, serum levels by LC/MS/MS; conditions: dog, 3 male beagle dogs, fasted, oral gavage of OPC suspension, 3 mgA/kg
Procedure: Samples were dosed orally as suspensions to 3 male beagle dogs in the fasted state. Oral powders for constitution (OPC) were prepared by adding 150 mg of crystalline Compound A to 50 mL water containing 0.5 wt % Methylcellulose A, or 600 mg of the dispersion of Example 1 to 50 mL water containing 0.5 wt % Methylcellulose A and 0.1 wt % Tween 80. Dogs were fasted overnight, and allowed ad libidum access to water. On the morning of the study, approximately 10 mL of OPC solution (3 mgA/kg) was administered via oral gavage with 10 mL normal saline flush.
Whole-blood samples (3-mL red-top Vacutainer tubes without serum separators) were taken from the jugular vein before dosing and at 0.25, 0.5, 1, 2, 4, 6, 8, and 24 hours after dosing. Serum was harvested into cryovials after centrifugation at 3000 rpm for 10 minutes. The samples were frozen and then kept at −20° C. until they were analyzed by liquid chromatography with tandem mass spectrometry (LC/MS/MS).

AUC90 (area under the concentration-versus-time curve during the initial ninety minutes) [1]: 800 min * μgA/mL
MDC90 (maximum dissolved concentration of Compound A during the initial ninety minutes) [1]: 13 μgA/mL
AUC(0-inf) [2]: 2690 ng·h/mL
Cmax [2]: 186 ng/mL
SMILES: CC[C@@H]1C[C@H](N(Cc2cc(C(F)(F)F)cc(C(F)(F)F)c2)c2nnn(C)n2)c2cc(C(F)(F)F)ccc2N1C(=O)[C@H]1CC[C@H](CC(N)=O)CC1 [Crystalline Compound A, Trans-(2R,4S)-2-(4-{4-[(3,5-Bis-trifluoromethyl-benzyl)-(2-methyl-2H-tetrazol-5-yl)-amino]-2-ethyl-6-trifluoromethyl-3,4-dihydro-2H-quinoline-1-carbonyl}-cyclohexyl)-acetamide]
